We go through 24 compounds from patent US9844536B2, “3-(1H-imidazo[4,5-C]pyridin-2-yl)-1H-pyrazolo[3,4-C]pyridine and therapeutic uses thereof” (Samumed, LLC, priority 2014, dated 2017).

This assay relates to Wnt pathway (Sp5-Luc reporter, SW480 cells). Nature of the assay: Sp5-Luc reporter gene screening assay for Wnt activity in SW480 colon carcinoma cells. The class given is cell-based. The conditions noted are these: Homo sapiens. The source says: The screening assay for Wnt activity is described as follows. Reporter cell lines can be generated by stably transducing cancer cell lines (e.g., colon cancer) or primary cells (e.g., IEC-6 intestinal cells) with a lentiviral construct that includes a Wnt-responsive promoter driving expression of the firefly luciferase gene.
SW480 colon carcinoma cells were transduced with a lentiviral vector expressing luciferase with a human Sp5 promoter consisting of a sequence of eight TCF/LEF binding sites. SW480 cells stably expressing the Sp5-Luc reporter gene and a hygromycin resistance gene were selected by treatment with 150 μg/ml of hygromycin for 7 days. These stably transduced SW480 cells were expanded in cell culture and used for all further screening activities. For Sp5-Luc reporter gene assays, the cells were plated at 10,000 cells/well in 96-well plates with growth medium containing 10% fetal calf serum and incubated overnight at 37° C. and 5% CO2. Each compound was dissolved in DMSO as a 10 mM stock in standard j-vials and used to prepare compound source plates in dose-response format with 3-fold serial dilutions and a 10 mM top concentration. Compound transfer from serially diluted source plates to assay plates containing the cells was accomplished using a pintool (Multimek 96, Beckman equipped with V&P Scientific FP1S50H pins) based liquid handling protocol. This protocol used a slotted pin to transfer 50 nl of compound from a source plate well to an assay plate well containing 50 μl of cells in growth medium. […] Control wells received 50 nl of DMSO treatment for normalization and calculating IC50 values. The treated cells were incubated at 37° C. and 5% CO2 for an additional forty-two hours. Following incubation, the growth medium was removed and 50 μl of BrightGlo luminescence reagent (Promega) was added to each well of the 96-well assay plates. The plates were placed on an orbital shaker for 5 min and then luminescence was quantified on the Victor3 (Perkin Elmer) plate reader. Readings were normalized to DMSO only treated cells, and normalized activities were utilized for IC50 calculations using the dose-response log (inhibitor) vs. response-variable slope (four parameters) nonlinear regression feature available in GraphPad Prism 5.0 or 6.0.
For orientation: Reporter assays use an easily measured gene product as a stand-in for the process of interest.
For orientation: IC50 means the midpoint of a concentration-inhibition curve. A high value points to weaker potency in that assay. Consider `CCC(=O)Nc1cncc(-c2cc3c(-c4nc5c(-c6cccc(F)c6)nccc5[nH]4)n[nH]c3cn2)c1` [Compound 1, N-(5-(3-(4-(3-Fluorophenyl)-1H-imidazo[4,5-c]pyridin-2-yl)-1H-pyrazolo[3,4-c]pyridin-5-yl)pyridin-3-yl)propionamide], for which the IC50 was determined as 34.1 nM.
For `CCCC(=O)Nc1cncc(-c2cc3c(-c4nc5c(-c6ccc(F)cc6)nccc5[nH]4)n[nH]c3cn2)c1` [Compound 43, N-(5-(3-(4-(4-Fluorophenyl)-1H-imidazo[4,5-c]pyridin-2-yl)-1H-pyrazolo[3,4-c]pyridin-5-yl)pyridin-3-yl)butyramide] the value was 130 nM; for `CC(C)CC(=O)Nc1cncc(-c2cc3c(-c4nc5c(-c6ccccc6F)nccc5[nH]4)n[nH]c3cn2)c1` [Compound 54, N-(5-(3-(4-(2-Fluorophenyl)-1H-imidazo[4,5-c]pyridin-2-yl)-1H-pyrazolo[3,4-c]pyridin-5-yl)pyridin-3-yl)-3-methylbutanamide], 47.6 nM; for `CC(C)(C)CC(=O)Nc1cncc(-c2cc3c(-c4nc5c(-c6ccccc6F)nccc5[nH]4)n[nH]c3cn2)c1` [Compound 68, N-(5-(3-(4-(2-Fluorophenyl)-1H-imidazo[4,5-c]pyridin-2-yl)-1H-pyrazolo[3,4-c]pyridin-5-yl)pyridin-3-yl)-3,3-dimethylbutanamide], 920 nM.
`CCCC(=O)Nc1cncc(-c2cc3c(-c4nc5c(-c6ccccc6F)nccc5[nH]4)n[nH]c3cn2)c1` [Compound 69, N-(5-(3-(4-(2-Fluorophenyl)-1H-imidazo[4,5-c]pyridin-2-yl)-1H-pyrazolo[3,4-c]pyridin-5-yl)pyridin-3-yl)butyramide] yielded an IC50 of 33.4 nM.
Compound `c1cncc(-c2nccc3[nH]c(-c4n[nH]c5cnc(-c6cncc(CN7CCCCC7)c6)cc45)nc23)c1` [Compound 93, 5-(5-(Piperidin-1-ylmethyl)pyridin-3-yl)-3-(4-(pyridin-3-yl)-1H-imidazo[4,5-c]pyridin-2-yl)-1H-pyrazolo[3,4-c]pyridine] returned an IC50 above 10000 nM.
For `c1ccc(CNCc2cncc(-c3cc4c(-c5nc6c(-c7cccnc7)nccc6[nH]5)n[nH]c4cn3)c2)cc1` [Compound 101, N-Benzyl-1-(5-(3-(4-(pyridin-3-yl)-1H-imidazo[4,5-c]pyridin-2-yl)-1H-pyrazolo[3,4-c]pyridin-5-yl)pyridin-3-yl)methanamine] the value was 51.3 nM; for `CCCCC(=O)Nc1cncc(-c2cc3c(-c4nc5c(-c6ccccn6)nccc5[nH]4)n[nH]c3cn2)c1` [Compound 148, N-(5-(3-(4-(Pyridin-2-yl)-1H-imidazo[4,5-c]pyridin-2-yl)-1H-pyrazolo[3,4-c]pyridin-5-yl)pyridin-3-yl)pentanamide], 199 nM.
Take `CC(C)(C)C(=O)Nc1cncc(-c2cc3c(-c4nc5c(N6CCCCC6)nccc5[nH]4)n[nH]c3cn2)c1` [Compound 164, N-(5-(3-(4-(Piperidin-1-yl)-1H-imidazo[4,5-c]pyridin-2-yl)-1H-pyrazolo[3,4-c]pyridin-5-yl)pyridin-3-yl)pivalamide]: the IC50 was found to be 140 nM.
As for `Cc1cn(-c2nccc3[nH]c(-c4n[nH]c5cnc(-c6cncc(NC(=O)CC(C)C)c6)cc45)nc23)cn1` [Compound 184], the figure is 41 nM.
For `CN1CCN(c2nccc3[nH]c(-c4n[nH]c5cnc(-c6cncc(N)c6)cc45)nc23)CC1` [Compound 211, 5-(3-(4-(4-Methylpiperazin-1-yl)-1H-imidazo[4,5-c]pyridin-2-yl)-1H-pyrazolo[3,4-c]pyridin-5-yl)pyridin-3-amine] the value was 118 nM; for `CC(C)(C)CC(=O)Nc1cncc(-c2cc3c(-c4nc5cnccc5[nH]4)n[nH]c3cn2)c1` [Compound 250, N-(5-(3-(1H-Imidazo[4,5-c]pyridin-2-yl)-1H-pyrazolo[3,4-c]pyridin-5-yl)pyridin-3-yl)-3,3-dimethylbutanamide], above 10000 nM.
`CC(C)(C)C(=O)Nc1cncc(-c2cc3c(-c4nc5c(-c6ccoc6)nccc5[nH]4)n[nH]c3cn2)c1` [Compound 294, N-(5-(3-(4-(Furan-3-yl)-1H-imidazo[4,5-c]pyridin-2-yl)-1H-pyrazolo[3,4-c]pyridin-5-yl)pyridin-3-yl)pivalamide]: the IC50 was determined as 38.7 nM.
For `CCC(=O)Nc1cncc(-c2cc3c(-c4nc5c(-c6cccs6)nccc5[nH]4)n[nH]c3cn2)c1` [Compound 313, N-(5-(3-(4-(Thiophen-2-yl)-1H-imidazo[4,5-c]pyridin-2-yl)-1H-pyrazolo[3,4-c]pyridin-5-yl)pyridin-3-yl)propionamide] the value was 28.6 nM; for `CC(C)CC(=O)Nc1cncc(-c2cc3c(-c4nc5c(-c6cccs6)nccc5[nH]4)n[nH]c3cn2)c1` [Compound 314, 3-Methyl-N-(5-(3-(4-(thiophen-2-yl)-1H-imidazo[4,5-c]pyridin-2-yl)-1H-pyrazolo[3,4-c]pyridin-5-yl)pyridin-3-yl)butanamide], 359 nM; for `O=C(Nc1cncc(-c2cc3c(-c4nc5c(-c6cccs6)nccc5[nH]4)n[nH]c3cn2)c1)C1CCC1` [Compound 332, N-(5-(3-(4-(Thiophen-2-yl)-1H-imidazo[4,5-c]pyridin-2-yl)-1H-pyrazolo[3,4-c]pyridin-5-yl)pyridin-3-yl)cyclobutanecarboxamide], 37.8 nM.
Regarding `Fc1cccc(-c2nccc3[nH]c(-c4n[nH]c5cnc(-c6cncc(OC7CCCCC7)c6)cc45)nc23)c1` [Compound 943, 5-(5-(Cyclohexyloxy)pyridin-3-yl)-3-(4-(3-fluorophenyl)-1H-imidazo[4,5-c]pyridin-2-yl)-1H-pyrazolo[3,4-c]pyridine], the IC50 is 255 nM.
For `Fc1cccc(-c2nccc3[nH]c(-c4n[nH]c5cnc(-c6cncc(OC7CCNCC7)c6)cc45)nc23)c1` [Compound 944, 3-(4-(3-Fluorophenyl)-1H-imidazo[4,5-c]pyridin-2-yl)-5-(5-(piperidin-4-yloxy)pyridin-3-yl)-1H-pyrazolo[3,4-c]pyridine] the value was above 10000 nM.
For `Fc1cccc(-c2nccc3[nH]c(-c4n[nH]c5cnc(-c6cncc(OCCN7CCCC7)c6)cc45)nc23)c1` [Compound 946, 3-(4-(3-Fluorophenyl)-1H-imidazo[4,5-c]pyridin-2-yl)-5-(5-(2-(pyrrolidin-1-yl)ethoxy)pyridin-3-yl)-1H-pyrazolo[3,4-c]pyridine] the value was above 10000 nM.
For `Fc1cccc(-c2nccc3[nH]c(-c4n[nH]c5cnc(-c6cncc(OCc7ccccc7)c6)cc45)nc23)c1` [Compound 950, 5-(5-(Benzyloxy)pyridin-3-yl)-3-(4-(3-fluorophenyl)-1H-imidazo[4,5-c]pyridin-2-yl)-1H-pyrazolo[3,4-c]pyridine] the value was 2010 nM; for `O=C(CC1CCCCC1)Nc1cncc(-c2cc3c(-c4nc5c(-c6cccc(F)c6)nccc5[nH]4)n[nH]c3cn2)c1` [Compound 951, 2-Cyclohexyl-N-(5-(3-(4-(3-fluorophenyl)-1H-imidazo[4,5-c]pyridin-2-yl)-1H-pyrazolo[3,4-c]pyridin-5-yl)pyridin-3-yl)acetamide], 1040 nM; for `Fc1cccc(-c2nccc3[nH]c(-c4n[nH]c5cnc(-c6ccncc6)cc45)nc23)c1` [Compound 952, 3-(4-(3-Fluorophenyl)-1H-imidazo[4,5-c]pyridin-2-yl)-5-(pyridin-4-yl)-1H-pyrazolo[3,4-c]pyridine], 32 nM.
For the compound `CC(C)CC(=O)Nc1cncc(-c2cc3c(-c4nc5c(-c6cc(F)cc(OCCN(C)C)c6)nccc5[nH]4)n[nH]c3cn2)c1` [Compound 1262, N-(5-(3-(4-(3-(2-(Dimethylamino)ethoxy)-5-fluorophenyl)-1H-imidazo[4,5-c]pyridin-2-yl)-1H-pyrazolo[3,4-c]pyridin-5-yl)pyridin-3-yl)-3-methylbutanamide], the IC50 worked out at 2060 nM.
For `CC(C)CC(=O)Nc1cncc(-c2cc3c(-c4nc5c(-c6cc(F)cc(OCCN7CCCC7)c6)nccc5[nH]4)n[nH]c3cn2)c1` [Compound 1306, N-(5-(3-(4-(3-Fluoro-5-(2-(pyrrolidin-1-yl)ethoxy)phenyl)-1H-imidazo[4,5-c]pyridin-2-yl)-1H-pyrazolo[3,4-c]pyridin-5-yl)pyridin-3-yl)-3-methylbutanamide] the value was 4220 nM.
